Source: article PMC12559800, “A NADH Oxidase Nanozyme Restores Redox Homeostasis to Ameliorate Multi-Organ Aging and Ischemic Cardiomyopathy” (Research, 2025)

Target: T1, CX43 (connexin 43; recombinant human CX43) (Homo sapiens, UniProt P17302)
T1 construct: gene GJA1; recombinant human CX43 from GenScript, immobilised on CM5 chip
Experiment: SPR, Biacore T200, CX43 immobilised on CM5 chip
Type: binding

T1 sequence (P17302 2-382): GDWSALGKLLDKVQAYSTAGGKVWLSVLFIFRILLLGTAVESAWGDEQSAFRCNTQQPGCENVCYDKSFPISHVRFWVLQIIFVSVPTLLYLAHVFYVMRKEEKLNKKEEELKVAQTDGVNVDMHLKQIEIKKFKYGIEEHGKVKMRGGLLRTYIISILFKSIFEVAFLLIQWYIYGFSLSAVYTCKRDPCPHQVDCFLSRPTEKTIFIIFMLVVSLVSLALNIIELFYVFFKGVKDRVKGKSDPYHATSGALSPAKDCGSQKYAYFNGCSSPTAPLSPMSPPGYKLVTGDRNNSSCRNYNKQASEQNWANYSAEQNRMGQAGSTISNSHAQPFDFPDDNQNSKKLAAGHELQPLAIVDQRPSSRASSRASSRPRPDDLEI

Kd: 0.0142 nM
Compound: NC(=O)c1ccc[n+]([C@@H]2O[C@H](COP(=O)([O-])OP(=O)(O)OC[C@H]3O[C@@H](n4cnc5c(N)ncnc54)[C@H](O)[C@@H]3O)[C@@H](O)[C@H]2O)c1 [NAD^+]
